# Assay results taken from patent US12239729B2, “TRPV3 agonists for the treatment of skin conditions” (Soricimed Biopharma Inc., priority 2012, dated 2025).
# “Also recorded” adds a separate entry of the source. Peptide text beside a SMILES is read from it.
# Tests used:
# HaCaT cells [1] = experiment: Cell death assay in HaCaT keratinocytes (Example 3); type: cell-based, human
# Protocol: In an initial experiment, various concentrations of SOR-C13 and SOR-C27 were tested on human keratinocytes (HaCaT cells) for their ability to cause cell death. The negative control was Phosphate Buffered Saline (PBS) and the positive control was Glycolic Acid (20 mM), a known activator of TRPV3. At the concentrations used (10, 100 and 1000 μM) only the 1000 μM concentration produced a statistically significant increase in cell death over PBS (FIG. 6). […] The two peptides appeared to be indistinguishable in their activity with respect to the number of dead cells
# Both peptides were dissolved in PBS at 30 mM concentration at ambient temperature based on the peptide content with a correction factor (SOR-C13 concentration was multiplied by 1.19, while SOR-C27 concentration was multiplied by 1.29). Stock solutions were sterilized by passing through a 0.2 μm syringe filter prewashed with PBS. Stocks of peptides were kept at −20° C. during the study.
# Human immortalized keratinocyte HaCaT cells (Cat. #T0020001) were from Addexbio Technologies (San Diego, California, USA). In general, HaCaT cells were cultured in 37° C. CO2 incubator in DEME with 1.0 g/L glucose (Lonza, Cat #12-707F) with 10% FBS. Glutamine (2 mM), penicillin (100 I.U.) and streptomycin (100 μg/ml) were added to the media. Cells were sub-cultured twice per week using Trypsin-0.25% EDTA to detach cells.
# HaCaT cells were plated at ˜8×10^5/well in each well of the 12-well tissue culture plates in triplicates in 2 ml culture media. Twenty-four (24) hours post-plating, cells were treated with PBS, or SOR-C13 at 10, 100 and 1000 μM, or SOR-C27 at 10, 100 and 1000 μM, or glycolic acid at 20 mM.
# At 72 hours post-treatment, the incubation was terminated and supernatant was collected. Attached cells were washed with 2 ml PBS, and trypsinized. Suspension of cells was combined with supernatant and spun at 1000 g for 5 minutes. The cell pellet was then resuspended in 100 μl PBS for cell counting using trypan blue exclusion.
# Student's t-test was used to compare the group treated with a test article vs. the group treated with PBS. Standard errors of mean (SEM) were used to represent variation of data.
# HaCaT cells [2] = experiment: Cell death assay in HaCaT cells with SOR-C13 fragments (Example 5); type: cell-based, human
# Protocol: Solutions of each of the peptides listed in Table 2 were made based on formulation weight without correction of purity in PBS at a 100 mM stock concentration. Stock solutions were sterilized by passing through a 0.2 μm syringe filter prewashed with PBS. Stocks of peptides were kept in aliquots at −20° C. during the study. Glycolic acid was made in a 5M stock in PBS and filtered using a 0.2 μm syringe filter and kept at −20° C.
# Human immortalized keratinocyte HaCaT cells were cultured as described in Example 3.
# HaCaT cells were plated at ˜8×10^5/well in each well of the 12-well tissue culture plates in triplicates in 2 ml culture media. Twenty-four (24) hours post-plating, cells were treated with PBS, or peptide stocks at 100 and 1000 μM (in triplicates), or glycolic acid at 20 mM (single data point). The Cell Death Assay was otherwise performed as described in Example 3.
# [3] = target: T1, TRPV3 channels expressed in HEK-293 cells (Homo sapiens, UniProt Q8NET8); experiment: Patch-clamp testing of TRPV3 channel activity in transfected HEK-293 cells; type: cell-based
# T1 construct: expressed in transfected cells; host or cells: HEK-293 cells, transient transfection
# T1 sequence (Q8NET8 1-790): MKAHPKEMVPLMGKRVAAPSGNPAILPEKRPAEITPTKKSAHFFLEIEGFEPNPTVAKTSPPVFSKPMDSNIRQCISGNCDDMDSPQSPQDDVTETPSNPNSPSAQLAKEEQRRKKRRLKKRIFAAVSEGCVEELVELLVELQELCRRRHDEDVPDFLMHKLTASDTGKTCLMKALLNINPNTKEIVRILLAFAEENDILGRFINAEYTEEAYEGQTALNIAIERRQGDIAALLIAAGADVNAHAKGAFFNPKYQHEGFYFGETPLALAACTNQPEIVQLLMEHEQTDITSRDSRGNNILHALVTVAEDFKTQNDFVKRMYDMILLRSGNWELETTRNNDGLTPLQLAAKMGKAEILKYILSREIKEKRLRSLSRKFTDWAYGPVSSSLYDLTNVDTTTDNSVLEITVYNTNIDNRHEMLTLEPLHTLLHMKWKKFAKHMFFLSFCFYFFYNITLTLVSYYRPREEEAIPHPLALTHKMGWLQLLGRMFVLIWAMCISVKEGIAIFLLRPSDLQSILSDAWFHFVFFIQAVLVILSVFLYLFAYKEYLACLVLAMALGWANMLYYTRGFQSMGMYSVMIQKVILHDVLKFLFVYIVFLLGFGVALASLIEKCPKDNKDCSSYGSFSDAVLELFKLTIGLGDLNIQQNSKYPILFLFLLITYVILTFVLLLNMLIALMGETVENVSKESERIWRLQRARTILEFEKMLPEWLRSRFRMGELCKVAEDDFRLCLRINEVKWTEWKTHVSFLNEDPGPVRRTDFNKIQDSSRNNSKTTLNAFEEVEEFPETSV
# Protocol: SOR-C13, SOR-C27 and SOR-N54 were tested using a patch clamp screen to determine whether the peptide had any effect on the channel activity of TRPV3. Ruthenium red, a known antagonist of TRPV3 and 2-Aminoethoxydiphenyl Borate (2-APB) a known activator of TRPV3 were used as controls.
# HEK 293 cells were maintained in ϕ30 mm cell culture plate in DMEM media supplemented with 10% fetal bovine serum and penicillin/streptomycin. Cells were grown in a humidified atmosphere of 95% air/5% CO2 at 37° C. in a cell culture incubator.
# The cells from 70-90% confluence were prepared for transfection. For transient expression in HEK-293 cells 1 μg plasmid cDNA and pEGFP (in vivo reporter of gene expression) were used.
# Recordings were performed at 20˜23° C. Currents were sampled using Digidata 1440A, amplified, and filtered at 2 kHz using Axopatch 200B, then acquired and analyzed using pClamp 10.0 (Molecular Devices, Sunny vales, CA, USA).
# The pipette solution and bath solution contained 140 mM CsCl, 4 mM MgCl2, 10 mM EGTA, CsOH pH=7.3 and 130 mM NaCl, 5 mM KCl, 2 mM CaCl2), 1 mM MgCl2, 25 mM HEPES, 30 mM Glucose, pH=7.3, respectively.
# Each peptide was diluted in the bath solution to the desired concentration (0.01 μM, 0.03 μM, 0.1 μM, 0.3 μM, 1 μM, 3 μM, or 10 μM), respectively.
# HaCaT cells [4] = experiment: Wound healing (scratch gap closure) assay in HaCaT cells (Example 4); type: cell-based, human; conditions: 24 hours; for effect on migration of HaCaT cells through the scratch (words): 100 μM
# Protocol: SOR-C13 and SOR-C27 were tested for their ability to promote tissue repair in a human keratinocytes (HaCaT) model of wound healing. In this model, cells are grown to confluency and then a gap is made in the sheet of cells by scratching the surface of the cells. After treating the cells for 24 hours, the closure of the gap, and the state of the cells in terms of polarization and mobility into the gap, are measured as a surrogate for activation of the wound healing response and the proliferation and/or migration of cells involved in tissue repair.
# HaCaT cells were plated at 4×10^5 per well in 12-well tissue culture plates in MEGM Bullet Kit (Lonza, Cat. #CC-3150) containing bovine pituitary extracts (BPE), hEGF, insulin, and hydrocortisone. The total volume was 2 ml. About 24 hours later, a gap at the bottom of each well was generated by scratching with a sterile pipette tip. The supernatant was aspirated and cells were washed gently once with PBS. Fresh media (MEGM Bullet Kit, 2 ml) was added after the wash. Cells were treated in duplicates with PBS, or SOR-C13 at 10, 100 and 1000 μM, or SOR-C27 at 10, 100 and 1000 μM, and 100 μM valproic acid. After 24 hours, each well was examined under the microscope to semi-quantify the gap closure by cell migration. A digital camera fixed to the microscope was used to capture images of cells.
# Under visual inspection, the wound healing results was scored as: • “−”: minimal cell polarization toward wound, no initiation of cell protrusion into the gap; no change in the wound gap; • “+”: cell polarization toward wound was observed; cell protrusion was observed; cell migration started but gap size is between 75 to 100% of original wound gap; • “++”: cell polarization toward the wound was observed; cell protrusion was observed; cell migration across the gap was observed, and gap size ≤½ of original wound gap; • “+++”: cell polarization toward wound was observed; cell protrusion was observed; cell migration across the gap was observed, and gap size ≤⅓ of original wound gap. Results
compound,measurement,setting,value
"O=C(O)CO [Glycolic acid, reference compound]",induction of cell death (words),"HaCaT cells [1]; 20 mM, 72 hours",dramatically induced cell death
same,number of dead cells,"HaCaT cells [1]; 20 mM, 72 hours",~9.1×10^4 per well
same,number of dead cells,"HaCaT cells [2]; 20 mM, 72-hour treatment, single data point",~4.5×10^4 per well
same,induction of cell death above PBS,"HaCaT cells [2]; 20 mM, 72 hours",no increase in cell death above the PBS treatment
N.N.N.N.N.N.N.N.N.N.N.N.N.N.[Cl-].[Cl-].[Cl-].[Cl-].[Cl-].[Cl-].[O-2].[O-2].[Ru+3].[Ru+3].[Ru+4] [Ruthenium red],effect on activation of TRPV3 channel by 2-APB,"[3]; control inhibitor, 100 μM 2-APB",inhibited activation of the channel by 2-APB
CC(C)C[C@H](NC(=O)CNC(=O)CNC(=O)[C@H](CCC(=O)O)NC(=O)[C@@H](NC(=O)[C@H](CC(=O)O)NC(=O)[C@H](CC(N)=O)NC(=O)[C@H](CO)NC(=O)[C@H](CO)NC(=O)[C@H](CC(C)C)NC(=O)[C@H](CCCCN)NC(=O)CNC(=O)[C@@H](N)CCC(=O)O)[C@@H](C)O)C(=O)N[C@@H](CS)C(=O)N[C@@H](CCCCN)C(=O)N[C@@H](CCC(=O)O)C(=O)N[C@@H](Cc1ccccc1)C(=O)N[C@@H](CC(C)C)C(=O)N[C@@H](Cc1c[nH]cn1)C(=O)N1CCC[C@H]1C(=O)N[C@@H](CO)C(=O)N[C@@H](CCCCN)C(=O)N[C@H](C(=O)N[C@@H](CC(=O)O)C(=O)N[C@@H](CC(C)C)C(=O)N1CCC[C@H]1C(=O)N[C@@H](CCCNC(=N)N)C(=O)O)C(C)C [SOR-C27] (H-EGKLSSNDTEGGLCKEFLHPSKVDLPR-OH),EC50,[3],0.0941 µM
same,increase in cell death compared to PBS treatment,"HaCaT cells [1]; 1 mM, 72-hour incubation",~2 fold
same,induction of cell death compared to PBS,"HaCaT cells [1]; 1 mM, 72 hours, p<0.05",significantly induced cell death
same,number of dead cells,"HaCaT cells [1]; 1 mM, 72 hours, trypan blue exclusion",2.3×10^4 /well
same,induction of cell death compared to PBS,"HaCaT cells [1]; 10 or 100 μM, 72 hours",no significant difference in the numbers of dead cells; also recorded: did not have a significant effect
same,effect on migration of HaCaT cells over the tested concentrations,"HaCaT cells [4]; 10, 100, 1000 μM",did not appear to exert a significant effect; also recorded: no significant visual difference; also recorded: had no clear effect on promoting migration
"CCCC(CCC)C(=O)O [Valproic acid, reference compound]",effect on migration of HaCaT cells through the scratch (words),HaCaT cells [4],appeared to block the migration
same,effect on migration of HaCaT cells through the scratch (words),HaCaT cells [4]; listed as valproic acid,did not appear to induce migration
HPSKVDLPR [SOR-C9],induction of cell death (words),"HaCaT cells [2]; 100 μM, 72 hours, p<0.05",slight but significant increase of cell death
same,induction of cell death (words),"HaCaT cells [2]; 100 μM, 72 hours, p<0.05, listed as C9",significant cell death induction
SKVDLPR [SOR-C7],induction of cell death (words),"HaCaT cells [2]; 100 μM, 72 hours, p<0.05",slight but significant increase of cell death
same,induction of cell death (words),"HaCaT cells [2]; 100 μM, 72 hours, p<0.05, listed as C7",significant cell death induction
same,induction of cell death (words),"HaCaT cells [2]; 1000 μM, 72 hours, p<0.05",slight but significant increase of cell death
"SOR-N54: full length soricidin peptide, fifty-four amino acid paralytic peptide (DCSQDCAACSILARPAELNTETCILECEGKLSSNDTEGGLCKEFLHPSKVDLPR; Soricidin; UniProt P0C2P6 1-54, looked up)",effect on TRPV3 channel activity / activation of TRPV3 by 2-APB,[3]; 10 μM peptide in the presence of 100 μM 2-APB,did not show any effect; also recorded: did not alter the activation of TRPV3
